Test results taken from paper PMC11725774 (Cancer Research Communications, 2025).

How the values were obtained:
[1] = tested on: BIM in parental MOLM-14 cells; assay: Western blot of apoptotic proteins; conditions: 75 nmol/L TUS, 48-hour exposure
[2] = tested on: MOLM-14 cells inoculated orthotopically; assay: Orthotopic AML xenograft survival; assay type: in vivo, NOD/SCID mice; conditions: oral TUS 30 mg/kg every day; vehicle 17 days
Protocol: (§1) For subcutaneous inoculation, MV-4-11 and MOLM-14 FLT3-ITD/F691L cells were mixed with BD Matrigel Matrix (1:0.5 ratio), and 2 to 5 × 10^6 cells in 0.15 mL were inoculated subcutaneously in NOD/SCID mice. Tumor size was assessed using a Vernier caliper 2 to 3 times weekly and volume was calculated using the formula for an ellipsoid sphere. For orthotopic inoculation, MOLM-14-Luc/GFP cells (2 × 10^6 cells in 0.03 mL PBS) or MV-4-11-Luc and MOLM-13-Luc cells (1 × 10^6 cells in 50 μL Hank’s balanced salt solution) were injected into the left tibia of NOD/SCID mice. Tumor growth was monitored weekly by bioluminescence imaging using an IVIS Lumina Series III In vivo imaging system (PerkinElmer Inc.). The Institutional Animal Care and Use Committee of the Hanmi Research Center approved the animal study protocol.
(§2) For both subcutaneous and bone marrow orthotopic models, after confirming tumor formation by palpation or bioluminescence imaging, mice were randomly assigned into experimental groups.
(§3) A P value less than 0.05 was considered statistically significant.

[3] = tested on: MV-4-11 cells inoculated orthotopically; assay: Orthotopic AML xenograft survival; assay type: in vivo, NOD/SCID mice; conditions: oral TUS 30 mg/kg every day; vehicle 42 days
Protocol: as §1, §2, §3

[4] = tested on: MOLM-13 cells inoculated orthotopically; assay: Orthotopic AML xenograft survival; assay type: in vivo, NOD/SCID mice; conditions: oral TUS 30 mg/kg every day; vehicle 37 days
Protocol: as §1, §2, §3

Structure (SMILES): Cc1ccc2c(-c3nc(Nc4cc(CN5C[C@@H](C)N[C@@H](C)C5)cc(C5CC5)c4)ncc3Cl)c[nH]c2c1 [TUS, Tuspetinib]
- increase of BIM [1]: 10 fold
- median survival [2]: 65 days
- median survival [3]: 147 days
- median survival [4]: 75 days
